# Data from patent US7825132B2, “Inhibition of FGFR3 and treatment of multiple myeloma” (Novartis Vaccines and Diagnostics, Inc., priority 2002, dated 2010).
# Like-named read-outs stand apart in the source and are kept apart here.
# What was measured:
# CYP1A2 = target: T1, CYP1A2 (Homo sapiens, UniProt P05177); test: Inhibition of cDNA derived CYP isozymes; type: in vitro ADME; conditions: cDNA-derived (recombinant) CYP1A2
# T1 sequence (P05177 1-516): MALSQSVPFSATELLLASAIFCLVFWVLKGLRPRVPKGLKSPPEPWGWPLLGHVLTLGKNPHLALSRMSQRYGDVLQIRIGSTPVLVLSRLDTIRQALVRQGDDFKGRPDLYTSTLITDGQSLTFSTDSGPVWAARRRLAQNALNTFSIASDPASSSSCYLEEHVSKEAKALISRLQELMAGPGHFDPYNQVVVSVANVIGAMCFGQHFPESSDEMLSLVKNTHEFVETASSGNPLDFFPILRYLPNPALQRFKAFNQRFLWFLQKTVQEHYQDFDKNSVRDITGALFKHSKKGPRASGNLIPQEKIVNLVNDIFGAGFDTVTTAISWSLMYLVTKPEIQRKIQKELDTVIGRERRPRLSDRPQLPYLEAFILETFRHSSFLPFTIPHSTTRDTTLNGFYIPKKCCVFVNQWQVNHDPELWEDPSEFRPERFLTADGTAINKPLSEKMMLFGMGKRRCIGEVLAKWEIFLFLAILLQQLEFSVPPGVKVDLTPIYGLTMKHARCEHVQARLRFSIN
# Text: (§1) The compound was stable in human liver microsomes. […].
# CYP2C9 = CYP2C9 (Homo sapiens, UniProt P11712); test: Inhibition of cDNA derived CYP isozymes; type: in vitro ADME; conditions: cDNA-derived (recombinant) CYP2C9
# CYP2C9, sequence (P11712 whole entry): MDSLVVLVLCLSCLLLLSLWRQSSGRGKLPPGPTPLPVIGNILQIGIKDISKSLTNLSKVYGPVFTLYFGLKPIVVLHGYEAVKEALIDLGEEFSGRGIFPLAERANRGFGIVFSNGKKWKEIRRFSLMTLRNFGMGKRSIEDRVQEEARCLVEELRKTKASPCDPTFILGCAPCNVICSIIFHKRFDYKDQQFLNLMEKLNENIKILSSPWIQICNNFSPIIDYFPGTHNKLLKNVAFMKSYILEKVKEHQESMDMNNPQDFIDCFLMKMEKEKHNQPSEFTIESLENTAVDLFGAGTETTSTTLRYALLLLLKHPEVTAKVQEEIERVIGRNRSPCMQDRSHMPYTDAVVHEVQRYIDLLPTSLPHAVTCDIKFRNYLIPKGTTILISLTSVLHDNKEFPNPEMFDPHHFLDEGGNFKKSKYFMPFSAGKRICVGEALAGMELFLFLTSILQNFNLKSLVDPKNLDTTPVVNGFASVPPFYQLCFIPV
# Text: as §1
# CYP3A4 = CYP3A4 (Homo sapiens, UniProt P08684); test: Inhibition of cDNA derived CYP isozymes; type: in vitro ADME; conditions: cDNA-derived (recombinant) CYP3A4
# CYP3A4, sequence (P08684 whole entry): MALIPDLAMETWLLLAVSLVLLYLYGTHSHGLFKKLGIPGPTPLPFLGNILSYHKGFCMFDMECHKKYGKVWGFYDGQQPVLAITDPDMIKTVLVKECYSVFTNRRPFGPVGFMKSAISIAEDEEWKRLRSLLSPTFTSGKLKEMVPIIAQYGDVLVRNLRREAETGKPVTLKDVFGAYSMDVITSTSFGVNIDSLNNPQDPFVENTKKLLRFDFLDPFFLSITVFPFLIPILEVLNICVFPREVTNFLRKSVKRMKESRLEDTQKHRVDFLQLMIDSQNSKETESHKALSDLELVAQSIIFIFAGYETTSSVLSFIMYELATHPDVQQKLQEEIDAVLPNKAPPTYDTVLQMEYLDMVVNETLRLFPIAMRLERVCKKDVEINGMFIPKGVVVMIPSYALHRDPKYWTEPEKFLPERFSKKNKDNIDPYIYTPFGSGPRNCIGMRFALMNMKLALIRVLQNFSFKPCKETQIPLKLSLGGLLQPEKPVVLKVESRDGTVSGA
# Text: as §1
# CYP2C19 = CYP2C19 (Homo sapiens, UniProt P33261); test: Inhibition of cDNA derived CYP isozymes; type: in vitro ADME; conditions: cDNA-derived (recombinant) CYP2C19
# CYP2C19, sequence (P33261 whole entry): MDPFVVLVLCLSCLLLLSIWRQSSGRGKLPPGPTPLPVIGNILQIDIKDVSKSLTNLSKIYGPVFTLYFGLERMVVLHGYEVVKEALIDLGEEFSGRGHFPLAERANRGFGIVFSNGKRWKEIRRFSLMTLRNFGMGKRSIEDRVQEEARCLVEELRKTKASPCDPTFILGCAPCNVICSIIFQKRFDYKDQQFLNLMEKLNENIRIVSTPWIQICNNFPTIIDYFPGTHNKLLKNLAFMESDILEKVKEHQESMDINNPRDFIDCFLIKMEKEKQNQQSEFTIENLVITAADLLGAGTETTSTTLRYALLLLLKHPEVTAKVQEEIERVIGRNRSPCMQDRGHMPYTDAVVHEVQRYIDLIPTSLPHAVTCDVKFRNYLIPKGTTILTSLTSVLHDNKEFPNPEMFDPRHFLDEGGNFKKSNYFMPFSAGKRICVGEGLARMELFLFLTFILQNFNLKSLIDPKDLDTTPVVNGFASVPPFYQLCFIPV
# CYP2D6 = CYP2D6 (Homo sapiens, UniProt P10635); test: Inhibition of cDNA derived CYP isozymes; type: in vitro ADME; conditions: cDNA-derived (recombinant) CYP2D6
# CYP2D6, sequence (P10635 whole entry): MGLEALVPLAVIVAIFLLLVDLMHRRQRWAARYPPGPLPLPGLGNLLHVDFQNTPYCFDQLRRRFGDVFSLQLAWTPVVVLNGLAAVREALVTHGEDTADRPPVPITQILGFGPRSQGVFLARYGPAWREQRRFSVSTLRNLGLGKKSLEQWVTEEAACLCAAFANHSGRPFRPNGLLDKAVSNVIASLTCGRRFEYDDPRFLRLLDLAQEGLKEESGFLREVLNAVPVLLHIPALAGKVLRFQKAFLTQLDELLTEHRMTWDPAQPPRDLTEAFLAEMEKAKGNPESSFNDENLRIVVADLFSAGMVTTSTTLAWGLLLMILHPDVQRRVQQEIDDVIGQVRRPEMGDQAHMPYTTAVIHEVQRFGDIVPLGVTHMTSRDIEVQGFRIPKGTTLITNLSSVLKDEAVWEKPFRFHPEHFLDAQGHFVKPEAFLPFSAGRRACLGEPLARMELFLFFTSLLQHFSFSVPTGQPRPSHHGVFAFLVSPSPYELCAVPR
# [1] = test system: FGF-2 supplemented Matrigel neovascularization
# ERK (MAPK) = ERK (MAPK) phosphorylation in HCT116 tumors; type: in vivo; conditions: dose- and time-dependent
# [2] = test system: PC3 human prostate tumor xenografts
# [3] = test system: VEGFR1, VEGFR2, PDGFRβ, and FGFR1; conditions: KM12L4a tumors after treatment
# TF-1 cells = test: cells; conditions: Homo sapiens, TF-1, 72 h
# c-Kit = target: T2, c-Kit (Homo sapiens, UniProt P10721); test: In vitro RTK kinase assay (TRF or radioactive); type: biochemical; conditions: Table 13
# T2 construct: Recombinant proteins corresponding to the cytoplasmic domains of the c-Kit and FLT-3 receptors were purchased (Proquinase); purchased Proquinase
# T2 sequence (P10721 546-976 limits assumed): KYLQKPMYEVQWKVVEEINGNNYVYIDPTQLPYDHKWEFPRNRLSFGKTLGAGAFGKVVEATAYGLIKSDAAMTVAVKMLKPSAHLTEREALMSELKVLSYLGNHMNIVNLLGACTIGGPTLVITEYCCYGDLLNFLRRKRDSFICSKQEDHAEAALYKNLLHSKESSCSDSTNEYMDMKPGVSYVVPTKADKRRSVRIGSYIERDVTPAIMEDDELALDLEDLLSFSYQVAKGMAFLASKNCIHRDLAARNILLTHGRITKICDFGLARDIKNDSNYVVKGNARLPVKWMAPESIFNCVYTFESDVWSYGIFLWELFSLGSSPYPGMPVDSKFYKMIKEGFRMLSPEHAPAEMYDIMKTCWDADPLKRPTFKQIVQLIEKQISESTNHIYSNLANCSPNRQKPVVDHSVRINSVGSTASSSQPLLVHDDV
# [4] = Monkey multiple oral dose experiment, plasma levels; type: in vivo; conditions: compound 1 5 mg/kg BID oral, day 1 and 14 samples
# [5] = Compound 1 and metabolite levels in rat plasma, 2 week toxicology study; type: in vivo
# [6] = test system: cancer and primary cell lines; test: antiproliferative activity, MTS assay, 27 cancer and primary cell lines (Table 6); type: cell-based; conditions: Homo sapiens, 26 out of the 27 cell lines, 72 hours
# Method: . […] The EC50 values were calculated using nonlinear regression. […]
# OPM-2 cells = conditions: Grand et al., Leukemia 2004; cited from earlier work
compound,measurement,setting,value
CN1CCN(c2ccc3nc(-c4c(N)c5c(F)cccc5[nH]c4=O)[nH]c3c2)CC1,IC50,CYP1A2,> 25 µM
same,IC50,CYP2C9,> 25 µM
same,IC50,CYP3A4,> 25 µM
same,IC50,CYP2C19,> 25 µM
same,IC50,CYP2D6,> 25 µM
same,tolerability,"[1]; mouse, in vivo",well tolerated
CN1CCN(c2ccc3nc(-c4c(N)c5c(F)cccc5[nH]c4=O)[nH]c3c2)CC1 [Compound 1],phosphorylation of ERK (MAPK),ERK (MAPK),inhibited
same,% Hb inhibition vs. Vehicle treatment of Matrigel + FGF,[1]; 30 mg/kg,71%
same,% Hb inhibition vs. Vehicle treatment of Matrigel + FGF,[1]; 200 mg/kg,89%
same,% Hb inhibition vs. Vehicle treatment of Matrigel + FGF,[1]; 300 mg/kg,91%
same,inhibition vs. FGF-supplemented controls,"[1]; range over 30, 100, 200 and 300 mg/kg",70-92%
same,% TGI vs. vehicle,[2]; 100 mpk q 2 days,75%
same,% TGI vs. vehicle,[2]; 100 mpk q 3 days,68%
same,% TGI vs. vehicle,[2]; 100 mpk q 4 days,66%
same,% TGI vs. vehicle,"[2]; 100 mpk qd, days 1-11",60%
same,"phosphorylation of VEGFR1, VEGFR2, PDGFRβ, and FGFR1",[3],inhibited in a time- and dose-dependent manner
same,EC50,TF-1 cells,≤ 0.05 µM
"C[N+]1([O-])CCN(c2ccc3nc(-c4c(N)c5c(F)cccc5[nH]c4=O)[nH]c3c2)CC1 [Compound 2, 4-Amino-5-fluoro-3-[5-(4-methyl-4-oxidopiperazin-1-yl)-1H-benzimidazol-2-yl]quinolin-2(1H)-one]",IC50,c-Kit,0.0002 µM
same,presence of the N-oxide metabolite in monkey plasma,[4],not detected
"Nc1c(-c2nc3ccc(N4CCNCC4)cc3[nH]2)c(=O)[nH]c2cccc(F)c12 [Compound 3, 4-Amino-5-fluoro-3-(5-piperazin-1-yl-1H-benzimidazol-2-yl)quinolin-2(1H)-one]",IC50,c-Kit,0.0002 µM
same,"Des-CH3 (ng/ml), estimated from UV","[5]; compound 1 30 mg/kg PO, Day 14, 1-2 hr",6 ng/mL
same,"Des-CH3 (ng/ml), estimated from UV","[5]; compound 1 30 mg/kg PO, Day 14, 4-8 hr",12 ng/mL
same,"Des-CH3 (ng/ml), estimated from UV","[5]; compound 1 100 mg/kg PO, Day 1, 1-2 hr",35 ng/mL
same,"Des-CH3 (ng/ml), estimated from UV","[5]; compound 1 100 mg/kg PO, Day 1, 4-8 hr",84 ng/mL
CN1CCN(c2ccc3[nH]c(-c4c(N)c5c(F)cccc5[nH]c4=O)nc3c2)CC1 [Example 166],EC50,[6],< 10 µM
CCN(CC)CCCCNc1ncc2cc(-c3cc(OC)cc(OC)c3)c(NC(=O)NC(C)(C)C)nc2n1 [PD173074],cytotoxic response / apoptosis in OPM2 cells,OPM-2 cells,failed to induce apoptosis
